Test results as given in patent publication US9249086B2, “Carboxylic acid ALA esters” (Photocure ASA, priority 2012, dated 2016).
Counter-ions that a name gives are not always drawn. Like-named read-outs stand apart in the source and are kept apart here. Marks after values point to notes of the source that are not given here.

Experiments:
WiDr cells [1] = experiment: In vitro PpIX formation in cancer cells; format: cell-based
Method: These untreated cells served as a control.
After treatment with the compounds of the invention and reference compounds as described above, the cells were washed twice with PBS and scraped off the substrate with a Costar cell scraper into a solution of 1M HClO4 in 50% methanol. Cell debris was removed by centrifugation. PpIX was quantitatively extracted from the cells with this procedure. The PpIX content in each sample was determined fluorometrically using a Perkin Elmer LS50B spectrofluorimeter. PpIX was excited at 407 nm, and the emitted fluorescence was measured at 606 nm using a long pass cut-off filter (530 nm) on the emission side. A standard of known PpIX concentration was added to the samples at concentrations increasing the total fluorescence by 50-100%. The PpIX concentration in each sample was calculated relative to the protein content in control cells as measured by a bicinchoninic acid protein assay.

WiDr cells [2] = settings: MTS assay; for Dark toxicity (cell toxicity in the absence of light): 0.001-1 mM, 4 hours incubation in the dark
Method: Stock solutions of the compounds above were prepared by dissolving them in DMSO to a concentration of 100 mM. Concentrations used in the experiments were obtained by diluting the stock solutions with PBS or cell culture medium.
WiDr cells derived from a primary adenocarcinoma of the rectosigmoid colon were subcultured in RPMI 1640 medium (Gibco) containing 10% fetal calf serum, 100 U/ml penicillin, 100 μg/ml streptomycin and 1% glutamine. Cells were split 1:100 twice a week, and maintained at 37° C. and 5% CO2 in a humid environment. For carrying out the experiments, 5×10^5 WiDr cells in 2 ml of the medium described above were added to each well of 6-well plastic tissue-culture plates (Nunc) and left for 48 hr at 37° C. and 5% CO2 in a humid environment for proper attachment to the substrate. The cells were then washed twice with RPMI 1640-medium without serum, followed by the addition to the wells of the appropriate dilutions of the compounds and references above in 2 ml of fresh culture medium to final concentrations of 0.001, 0.003, 0.01, 0.03, 0.1, 0.3 and 1 mM in duplicates. To two wells, only 2 ml of fresh culture medium was added. These untreated cells served as a control. The cells were incubated at 37° C. for four hours in the dark.
Dark toxicity, i.e. cell toxicity in the absence of light, was measured by MTS assay immediately after the above-described 4 hours of incubation with the compounds and references at various concentrations.

[3] = tested on: UV-damaged mouse skin versus healthy mouse skin; experiment: In vivo skin fluorescence in healthy nude mice and nude mice with UV-damaged skin; settings: nude mice; for Ratio of skin fluorescence in UV-damaged mouse skin to skin fluorescence in healthy mouse skin: equimolar creams (16% / 14%), about 125 μl, tape-stripped skin, 3 hours in the dark, 10 mice per group; for Selectivity for UV-damaged skin: equimolar creams, 3 hours
Method: An experiment was carried out to assess the potential for compound 6 to show selective accumulation in UV-damaged skin. For the assessment, skin fluorescence after application of the compound was measured in vivo in healthy mouse skin and in UV-damaged mouse skin. A nude mice model with UV-damaged skin (actinic damage) was established as described by K. Togsverd-Bo et al., Exp. Dermatol. 2012, 21, 260-264.
Equimolar amounts of compound 2 (1-(isopropyl carboxy)ethyl 5-amino-4-oxopentanoate hydrochloride prepared according to Example 2) and compound 5 (3-carboxypropyl 5 amino-4-oxopentanoate hydrochloride prepared according to Example 5) were formulated as a cream in Unguentum Merck: compound 2: 16%, 160 mg/g and compound 5: 14%, 140 mg/g, respectively.
One group of healthy nude mice (10 mice, control group) and one group of nude mice with UV-damaged skin (10 mice) were included in the experiment. About 125 μl of cream formulation was applied onto the back of each mouse. Prior to cream application, the dorsal skin of each mouse was tape-stripped five times to enhance penetration of the compound: adhesive film (Scotch tape, 3M) was pressed onto the skin of the application area, the tape strip was removed with one quick movement and a new tape strip was used. The mice were kept in the dark for 3 hours prior to skin fluorescence measurement to avoid photobleaching. Skin fluorescence was assessed as described in Example 17 and the mean amount of skin fluorescence for each group of mice was calculated.
The ratio of skin fluorescence [a.u] in UV-damaged mouse skin to skin fluorescence [a.u.] in healthy mouse skin was determined.

[4] = tested on: skin of healthy nude mice; experiment: In vivo skin fluorescence study in healthy nude mice; settings: cream in Unguentum Merck, equimolar (16-19%), about 100 μl on back, 6 hours in the dark, excitation 365 and 405 nm, mean of 5 mice
Method: A study was carried out to assess the potential of the compounds of the invention as precursors for photosensitisers for skin application. As such, the compounds of the invention need to be able to penetrate the skin, to be taken up by the cells in the skin and to be converted to photosensitisers. The result of this process can be visualized by exposing the skin to light which excites the photosensitiser molecules and to determine the amount of energy which is released in the form of fluorescence when the excited photosensitiser molecules relax to an energetically lower state.
Compounds 2, 4 and 7 above were formulated as creams in Unguentum Merck. The compounds were tested in equimolar amounts:
3 groups of mice (5 mice/group, each mouse of one group receiving the same cream formulation) were included in the experiment. About 100 μl of cream formulation was applied onto the back of one mouse. The mice were kept in the dark for 6 hours prior to skin fluorescence measurement to avoid photobleaching. For assessment of skin fluorescence, a fluorescence camera (Medeikonos PDD/PDT, Medeikonos AB, Gothenburg, Sweden) was used and images of the back of each mouse were taken. Excitation was carried out at wavelengths of 365 and 405 nm and 2 s illumination time. Each image was calibrated to a fluorescence standard (Uranyl Standard, J&M, Analytische Mess- and Regeltechnik GmbH, Hamburg, Germany) and adjusted for background fluorescence. The mean amount of skin fluorescence in each image was calculated by means of image analyzer-software (MatLab 7.2.0.232, Math-Works, Natick, Mass., USA) and the mean amount of skin fluorescence for each group of mice (5 mice/compound) was calculated.

[5] = tested on: Rat bladder cells (AY-27); experiment: PpIX measurements in rat bladder cells; format: cell-based; settings: AY-27 cells, 2 hours incubation
Method: Rat bladder cells (AY-27) were grown in the culture medium (RPMI 1640 supplemented with 9% fetal calf serum 1% L-glutamin (200 mM) and 1% penicillin (10 000 UI), streptomycin (10 000 μg·mL^−1). Exponentially growing cells (AY-27) were incubated for 2 hours with freshly prepared solutions of 0.8 mM HAL (which is a tenth of the concentration which is used for bladder cancer […]). Control cells received serum-free medium without any test or reference compounds. After the incubation, the solutions or the medium was discarded and the cells were rinsed 2 times with ice-cooled PBS. PpIX was extracted from cells using an ice-cold lysis extraction mixture, consisting of ethanol/DMSO/acetic acid (80/20/1, v/v/v). The cell lysate was centrifuged (400 g, 10 min, 2° C.), the pellet was grinded and the suspension was sonicated for 15 min before being centrifuged. The fluorescence signal of PpIX was measured with a Perkin-Elmer LS 55 spectrometer (Perkin-Elmer, Beaconsfield, UK) and expressed as a function of the protein content. The fluorescence intensity at 635 nm in each sample was reported on a calibration curve established with PpIX (Sigma-Aldrich, France) diluted in extraction mixture as described above. The PpIX concentration was expressed relative to the protein content. Briefly, a lysis buffer mixture (1 mM EDTA, 1% Triton X-100 and 10 mM Tris-HCl; pH 7.4) was added to frozen cell dishes together with 500 mM PMSF (anti-protease) solution in DMSO. Lysates were kept on ice for 30 minutes and centrifuged at 4° C. for 20 minutes at 15 000 g. The protein content was then measured against a BSA calibration curve by a Biorad DC protein assay kit (Bio-Rad, France) based on a method developed by Lowry.

[6] = tested on: Rat bladder cells (AY-27); experiment: Cytotoxicity in rat bladder cells (MTT test); format: cell-based; settings: AY-27 cells; for Cytotoxicity: 2 hours, MTT test; for Levels of cytotoxicity compared to HAL: compound at 1 mM
Method: All experiments were performed in 4-5 replicates under subdued light. For concentrations of compounds 1 mM, the cytotoxicity was assessed with MTT test. Exponentially growing cells were incubated with freshly prepared solution or medium as described above for 2 hours in 96-well plates. After the incubation, the solutions or the medium was discarded and the cells were washed twice with PBS. Then 50 μl of MTT (2.5 mg·ml^−1) was added to 150 μl of RPMI serum-free medium per well and incubated for 3 hours. Absorbance was measured by dissolving formazan crystals with 50 μl of DMSO. The absorbance was normalized to that of control cells.

[7] = WiDr cells, 0.001-1 mM, 4 hours incubation, * mean of two, ** mean of 3 experiments

## Cl.NCC(=O)CCC(=O)O [ALA, 5-ALA hydrochloride, reference compound]
WiDr cells [1]; [7]
  Max. PpIX content: 80* ng/mg protein
WiDr cells [1]; WiDr cells, 4 hours incubation
  Compound concentration for max PpIX formation: ≧1 mM
WiDr cells [2]
  Dark toxicity (cell toxicity in the absence of light): no cell toxicity was observed

## CC(C)OC(=O)C(C)OC(=O)CCC(=O)CN (centres unmarked) [Compound 2, 1-(isopropylcarboxy)ethyl 5-amino-4-oxopentanoate hydrochloride]
[3]
  Ratio of skin fluorescence in UV-damaged mouse skin to skin fluorescence in healthy mouse skin: 1.14
  Selectivity for UV-damaged skin: some selectivity for UV-damaged skin
[4]
  Skin fluorescence: 31557 a.u.

## NCC(=O)CCC(=O)OCCCC(=O)O [Compound 5, 3-carboxypropyl 5-amino-4-oxopentanoate hydrochloride]
WiDr cells [1]; [7]
  Max. PpIX content: 30 ng/mg protein
WiDr cells [1]; WiDr cells, 4 hours incubation
  Compound concentration for max PpIX formation: 1 mM
[5]; 0.3 mM
  PpIX Mean ± SD: 221 ± 32 pmoles/mg protein
[5]; 0.5 mM
  PpIX Mean ± SD: 224 ± 35 pmoles/mg protein
[5]; 1 mM
  PpIX Mean ± SD: 261 ± 52 pmoles/mg protein
[5]; 5 mM
  PpIX Mean ± SD: 250 ± 83 pmoles/mg protein
[5]; 15 mM
  PpIX Mean ± SD: 216 ± 11 pmoles/mg protein
WiDr cells [2]
  Dark toxicity (cell toxicity in the absence of light): no cell toxicity was observed
[6]; 1 mM
  Cytotoxicity: 17 % of control
[6]; 5 mM
  Cytotoxicity: 30 % of control
[6]; 15 mM
  Cytotoxicity: 37 % of control
[6]
  Levels of cytotoxicity compared to HAL: comparable and acceptable
[3]
  Ratio of skin fluorescence in UV-damaged mouse skin to skin fluorescence in healthy mouse skin: 2.72
  Selectivity for UV-damaged skin: pronounced selectivity for UV-damaged skin

## NCC(=O)CCC(=O)OCc1ccc(C(=O)O)cc1 [Compound 7, (4-carboxyphenyl)methyl 5-amino-4-oxopentanoate hydrobromide]
[4]
  Skin fluorescence: 2995 a.u.

## NCC(=O)CCC(=O)OCCCCC(=O)O [Compound 8, 4-carboxybutyl 5-amino-4-oxopentanoate hydrochloride]
[5]; 0.3 mM
  PpIX Mean ± SD: 243 ± 28 pmoles/mg protein
[5]; 0.5 mM
  PpIX Mean ± SD: 219 ± 51 pmoles/mg protein
[5]; 1 mM
  PpIX Mean ± SD: 258 ± 62 pmoles/mg protein
[5]; 5 mM
  PpIX Mean ± SD: 234 ± 78 pmoles/mg protein
[5]; 15 mM
  PpIX Mean ± SD: 213 ± 64 pmoles/mg protein
[6]; 1 mM
  Cytotoxicity: 18 % of control
[6]; 5 mM
  Cytotoxicity: 26 % of control
[6]; 15 mM
  Cytotoxicity: 38 % of control
[6]
  Levels of cytotoxicity compared to HAL: comparable and acceptable

## NCC(=O)CCC(=O)OCCCCCC(=O)O [Compound 9, 5-carboxypentyl 5-amino-4-oxopentanoate hydrochloride]
WiDr cells [1]
  Compound concentration for max PpIX formation: 1 mM
  Max. PpIX content: 40 ng/mg protein
WiDr cells [2]
  Dark toxicity (cell toxicity in the absence of light): no cell toxicity was observed

## NCC(=O)CCC(=O)OCCCCCCCC(=O)O [Compound 10, 7-carboxyheptyl 5-amino-4-oxopentanoate hydrochloride]
WiDr cells [1]
  Compound concentration for max PpIX formation: 1 mM
  Max. PpIX content: 55* ng/mg protein
WiDr cells [2]
  Dark toxicity (cell toxicity in the absence of light): no cell toxicity was observed

## NCC(=O)CCC(=O)OCCCCCCCCCC(=O)O [Compound 12, 9-carboxynonyl 5-amino-4-oxopentanoate hydrochloride]
WiDr cells [1]; [7]
  Max. PpIX content: 90* ng/mg protein
WiDr cells [1]; WiDr cells, 4 hours incubation
  Compound concentration for max PpIX formation: 0.05 mM
WiDr cells [2]
  Dark toxicity (cell toxicity in the absence of light): no cell toxicity was observed

## NCC(=O)CCC(=O)OCCCCCCCCCCCC(=O)O [Compound 14, 11-carboxyundecyl 5-amino-4-oxopentanoate hydrochloride]
WiDr cells [1]
  Compound concentration for max PpIX formation: 0.1 mM
  Max. PpIX content: 65* ng/mg protein
WiDr cells [2]
  Dark toxicity (cell toxicity in the absence of light): no cell toxicity was observed

## Cl.NCC(=O)CCC(=O)OCCCCCCCCCCCCCCCC(=O)O [Compound 15, 15-carboxypentadecyl 5-amino-4-oxopentanoate hydrochloride]
WiDr cells [1]
  Compound concentration for max PpIX formation: 0.1 mM
WiDr cells [1]; [7]
  Max. PpIX content: 25 ng/mg protein
WiDr cells [2]; 4 hours in the dark
  Concentrations at which compound was toxic (dark toxicity): above 0.1 mM

## CCCCCCOC(=O)CCC(=O)CN.Cl [HAL, 5-ALA hexyl ester hydrochloride, reference compound]
WiDr cells [1]; [7]
  Max. PpIX content: 94** ng/mg protein
WiDr cells [1]; WiDr cells, 4 hours incubation
  Compound concentration for max PpIX formation: 0.1 mM
WiDr cells [2]
  Dark toxicity (cell toxicity in the absence of light): weak cell toxicity
WiDr cells [2]; range of 0.3 to 1 mM, 4 hours in the dark
  Minimum cell survival rate: 85%
[6]; 0.8 mM
  Cytotoxicity: 15 % of control
